pIC50: −log10 of the molar value.
Biological target: Bruton's tyrosine kinase (BTK) (Homo sapiens, UniProt Q06187)
Assay: immunoblot of BTK Y223 autophosphorylation in anti-IgM-stimulated Ramos cells
Format: cell-based

Sequence of Bruton's tyrosine kinase (BTK) (Q06187 2-659): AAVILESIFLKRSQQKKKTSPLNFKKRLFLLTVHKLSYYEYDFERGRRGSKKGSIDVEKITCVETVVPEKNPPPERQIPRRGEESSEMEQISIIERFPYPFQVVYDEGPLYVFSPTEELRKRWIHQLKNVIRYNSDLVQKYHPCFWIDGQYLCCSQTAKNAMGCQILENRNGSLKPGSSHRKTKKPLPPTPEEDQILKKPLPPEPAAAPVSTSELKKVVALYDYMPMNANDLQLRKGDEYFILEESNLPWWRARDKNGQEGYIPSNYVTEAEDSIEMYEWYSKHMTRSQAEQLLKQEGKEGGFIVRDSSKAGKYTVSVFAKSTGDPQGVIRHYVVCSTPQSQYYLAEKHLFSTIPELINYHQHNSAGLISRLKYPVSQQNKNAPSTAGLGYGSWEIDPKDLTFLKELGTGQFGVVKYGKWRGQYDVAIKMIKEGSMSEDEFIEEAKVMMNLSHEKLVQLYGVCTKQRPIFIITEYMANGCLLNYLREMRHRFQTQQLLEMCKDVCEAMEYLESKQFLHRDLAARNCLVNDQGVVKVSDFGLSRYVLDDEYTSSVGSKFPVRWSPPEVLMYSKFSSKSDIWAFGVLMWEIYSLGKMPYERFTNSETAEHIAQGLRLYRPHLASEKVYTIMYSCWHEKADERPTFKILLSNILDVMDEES

- pIC50: > 8.00
Structure (SMILES): C=CC(=O)Nc1cccc(Oc2nc(Nc3ccc(N4CCN(C)CC4)cc3)nc3ccoc23)c1 [HM71224]

Source: PMC5615432, “HM71224, a selective Bruton’s tyrosine kinase inhibitor, attenuates the development of murine lupus” (Arthritis Research & Therapy, 2017)
